From ChEMBL document CHEMBL1201862, “PubChem BioAssay data set” (2004)
Calls of active or inactive are those of the source.

Legend:
[1] = HIV-1 AD8 envelope cell-cell fusion blockers – cherry-pick, dose response (AID 652062); format: functional, cell-based;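 further: luciferase signal from cell-cell fusion driven by HIV-1 clade B AD8 Env; potency is for inhibitors of fusion seen as a drop in luminescence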
[2] = blockers of HIV-1 envelope-mediated cell-cell fusion – cherry-pick, dose response (AID 652057); format: functional, cell-based
[3] = P. falciparum Dd2 growth inhibitors, dose response, SYBR Green, cherry-picked samples (AID 1159567); format: functional, cell-based
[4] = Luminescence Cell-Based Dose Response HTS to Identify Activators of Luciferase Translation or Activity in H4 […] Cells. [Related pubchem assays: 1829 (Project Summary), 1814 (Primary HTS)]; format: functional
[5] = Luminescence Cell-Based Dose Confirmation HTS to Identify Activators of 5'UTR Stem-Loop Driven Alpha-Synuclein mRNA Translation in H4 Neuroglioblastoma Cells. [Related pubchem assays: 1829 (Project Summary), 1814 (Primary HTS)]; format: functional
H4 = assay: Luminescence Cell-Based Dose Response HTS to Identify Activators of 5'UTR Stem-Loop Driven Prion Protein mRNA Translation in H4 Neuroglioblastoma Cells. [Related pubchem assays: 1829 (Project Summary), 1814 (Primary HTS)]; format: functional; settings: Homo sapiens
[6] = blockers of CRF-binding protein–CRF-R2 complex – cell-based, uHTS hits, 384-well, dose response (AID 651639); format: functional, Homo sapiens; settings: read-out: IC50_Mean
[7] = target: T1, Corticotropin-releasing factor receptor 2/Corticotropin-releasing factor-binding protein (Homo sapiens, UniProt P24387+Q13324); assay: activators of CRF receptor 2 with binding protein – uHTS hits, confirmation (AID 602473); format: functional; settings: read-out: EC50_Mean
T1 sequence (Q13324 whole entry): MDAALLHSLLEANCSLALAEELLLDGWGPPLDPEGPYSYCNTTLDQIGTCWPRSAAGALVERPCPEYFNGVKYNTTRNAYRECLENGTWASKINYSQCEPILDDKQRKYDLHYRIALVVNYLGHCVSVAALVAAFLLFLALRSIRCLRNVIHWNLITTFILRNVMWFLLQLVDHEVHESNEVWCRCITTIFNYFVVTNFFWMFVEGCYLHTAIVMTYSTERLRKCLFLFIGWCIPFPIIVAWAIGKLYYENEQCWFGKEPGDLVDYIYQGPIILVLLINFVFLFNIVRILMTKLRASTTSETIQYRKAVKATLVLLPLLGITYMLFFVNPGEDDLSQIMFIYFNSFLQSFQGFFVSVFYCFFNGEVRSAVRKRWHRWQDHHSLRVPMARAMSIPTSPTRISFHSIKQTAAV
T1 sequence (P24387 whole entry): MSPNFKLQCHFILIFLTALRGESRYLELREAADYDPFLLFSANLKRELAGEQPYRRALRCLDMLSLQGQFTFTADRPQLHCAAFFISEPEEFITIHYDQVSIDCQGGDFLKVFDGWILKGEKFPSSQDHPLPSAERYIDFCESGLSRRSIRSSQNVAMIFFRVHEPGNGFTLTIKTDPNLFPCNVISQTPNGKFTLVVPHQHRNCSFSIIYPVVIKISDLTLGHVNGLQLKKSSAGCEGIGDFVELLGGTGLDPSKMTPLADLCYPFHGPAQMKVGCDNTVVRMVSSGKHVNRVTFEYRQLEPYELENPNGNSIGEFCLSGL

[8] = target: T1, Corticotropin-releasing factor receptor 2/Corticotropin-releasing factor-binding protein; assay: Dose Response confirmation of uHTS hits for small molecule antagonists of the CRF-binding protein and CRF-R2 receptor complex.; format: functional; settings: read-out: IC50_Mean
[9] = viability of HCT116 lacking mutant beta-catenin – cell-based, human colon tumor, dose response (AID 1045); format: functional;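 further: HCT116 colon tumor cells with beta catenin knocked out; cells exposed to compound for 60 hours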
[10] = viability of PTEN-deleted HCT116 cells – cell-based, HCT116 PTEN knockout, dose response (AID 1047); format: functional;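 further: HCT116 colon tumor cells with PTEN knocked out; cells exposed to compound for 60 hours before readout; potency for loss of cell viability measured by luminescence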
[11] = target: Induced myeloid leukemia cell differentiation protein Mcl-1 (Homo sapiens, UniProt Q07820); format: functional
Induced myeloid leukemia cell differentiation protein Mcl-1, sequence (Q07820 whole entry): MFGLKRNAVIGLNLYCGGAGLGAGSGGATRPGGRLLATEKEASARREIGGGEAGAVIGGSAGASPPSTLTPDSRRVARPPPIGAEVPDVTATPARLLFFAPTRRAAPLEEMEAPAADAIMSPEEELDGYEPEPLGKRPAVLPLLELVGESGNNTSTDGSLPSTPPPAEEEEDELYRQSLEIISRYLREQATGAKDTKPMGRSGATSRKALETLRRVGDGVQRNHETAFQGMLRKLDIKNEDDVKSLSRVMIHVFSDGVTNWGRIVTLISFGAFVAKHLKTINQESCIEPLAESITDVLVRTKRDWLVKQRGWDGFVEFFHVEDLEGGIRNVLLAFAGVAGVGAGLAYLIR

Cytochrome P450 2C19 = Cytochrome P450 2C19 (Homo sapiens, UniProt P33261); assay: Cytochrome panel assay with activity outcomes. Panel member name: p450-cyp2c19 Compounds with AC50 equal or less than 10 uM are considered active; format: functional; settings: read-out: AC50
Cytochrome P450 2C19, sequence (P33261 whole entry): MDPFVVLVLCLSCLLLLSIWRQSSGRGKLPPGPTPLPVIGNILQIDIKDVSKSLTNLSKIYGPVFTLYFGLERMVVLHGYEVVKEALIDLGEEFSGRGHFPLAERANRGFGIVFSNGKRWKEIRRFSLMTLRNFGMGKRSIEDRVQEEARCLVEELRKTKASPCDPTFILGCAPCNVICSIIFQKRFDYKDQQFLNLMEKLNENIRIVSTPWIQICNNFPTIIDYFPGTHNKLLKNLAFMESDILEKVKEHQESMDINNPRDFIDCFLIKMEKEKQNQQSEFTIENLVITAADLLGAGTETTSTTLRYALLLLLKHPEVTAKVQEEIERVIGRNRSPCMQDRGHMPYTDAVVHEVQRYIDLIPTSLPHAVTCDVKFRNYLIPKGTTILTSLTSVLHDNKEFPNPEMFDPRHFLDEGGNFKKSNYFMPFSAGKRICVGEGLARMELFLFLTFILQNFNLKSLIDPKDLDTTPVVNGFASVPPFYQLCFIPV

[12] = target: T2, Histone-lysine N-methyltransferase NSD2 (Homo sapiens, UniProt O96028); format: biochemical
T2 sequence (O96028 whole entry): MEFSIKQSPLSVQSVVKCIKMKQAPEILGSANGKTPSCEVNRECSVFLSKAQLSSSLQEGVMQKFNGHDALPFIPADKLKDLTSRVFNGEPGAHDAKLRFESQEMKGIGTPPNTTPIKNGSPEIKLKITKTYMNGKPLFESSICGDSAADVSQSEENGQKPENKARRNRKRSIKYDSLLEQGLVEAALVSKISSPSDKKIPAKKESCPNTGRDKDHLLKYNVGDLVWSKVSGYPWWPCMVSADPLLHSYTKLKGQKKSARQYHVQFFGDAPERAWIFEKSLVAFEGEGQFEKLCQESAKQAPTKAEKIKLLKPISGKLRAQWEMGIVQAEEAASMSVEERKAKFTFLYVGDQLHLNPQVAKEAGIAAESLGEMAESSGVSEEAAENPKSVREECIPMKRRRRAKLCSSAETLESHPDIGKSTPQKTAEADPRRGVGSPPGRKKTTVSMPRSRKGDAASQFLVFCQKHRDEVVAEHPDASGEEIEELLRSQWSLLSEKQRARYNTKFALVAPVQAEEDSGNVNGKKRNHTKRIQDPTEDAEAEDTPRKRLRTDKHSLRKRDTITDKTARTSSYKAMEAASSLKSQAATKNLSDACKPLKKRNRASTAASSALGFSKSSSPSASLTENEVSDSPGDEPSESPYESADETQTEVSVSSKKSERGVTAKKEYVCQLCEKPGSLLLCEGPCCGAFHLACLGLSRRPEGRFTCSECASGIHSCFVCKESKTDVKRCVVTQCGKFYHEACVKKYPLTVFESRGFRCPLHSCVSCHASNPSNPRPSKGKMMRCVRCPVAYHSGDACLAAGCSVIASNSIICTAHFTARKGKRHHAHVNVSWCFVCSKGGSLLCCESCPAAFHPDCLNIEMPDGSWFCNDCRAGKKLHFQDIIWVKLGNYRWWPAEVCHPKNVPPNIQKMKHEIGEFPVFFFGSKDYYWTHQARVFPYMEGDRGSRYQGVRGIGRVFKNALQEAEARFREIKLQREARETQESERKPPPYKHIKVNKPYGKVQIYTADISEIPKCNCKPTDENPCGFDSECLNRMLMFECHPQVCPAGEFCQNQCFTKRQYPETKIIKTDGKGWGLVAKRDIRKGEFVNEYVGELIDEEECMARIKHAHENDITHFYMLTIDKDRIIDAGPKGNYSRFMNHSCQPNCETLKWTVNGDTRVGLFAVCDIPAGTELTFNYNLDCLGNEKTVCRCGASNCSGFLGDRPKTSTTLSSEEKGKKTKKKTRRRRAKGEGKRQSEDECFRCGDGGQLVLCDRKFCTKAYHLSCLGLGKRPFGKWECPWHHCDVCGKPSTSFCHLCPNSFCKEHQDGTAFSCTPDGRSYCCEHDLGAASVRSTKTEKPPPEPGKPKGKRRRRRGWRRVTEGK

[13] = target: FAD-linked sulfhydryl oxidase ALR (Homo sapiens, UniProt P55789); assay: ALR-catalysed DTT oxidation blockers – biochemical, H2O2 detection, luminescence, cherry-pick, dose response (AID 493248)
FAD-linked sulfhydryl oxidase ALR, sequence (P55789 whole entry): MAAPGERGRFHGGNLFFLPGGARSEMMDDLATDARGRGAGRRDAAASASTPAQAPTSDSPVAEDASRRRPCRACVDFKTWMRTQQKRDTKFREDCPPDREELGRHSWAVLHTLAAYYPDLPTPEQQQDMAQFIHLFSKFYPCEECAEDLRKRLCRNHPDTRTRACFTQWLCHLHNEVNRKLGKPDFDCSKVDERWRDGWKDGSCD

Streptococcus = assay: GAS UMAA2166 growth inhibition – luminescence, BacTiterGlo, counter-screen for streptokinase expression inhibitor project, dose response (AID 1915); format: functional, organism-based;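 further: potency for reduction of bacterial viability or growth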
[14] = tested on: Streptococcus sp. 'group A'; assay: Streptococcus pyogenes SK(-)GAS viability under kanamycin – luminescence, BacTiterGlo, confirmation, counter-screen for streptokinase expression inhibitor project, dose response (AID 1900); format: functional, organism-based
[15] = Luminescence Cell-Based Dose Response HTS to Identify Inhibitors of 5'UTR Stem-Loop Driven Prion Protein mRNA Translation in H4 Neuroglioblastoma Cells. [Related pubchem assays: 1827 (Project Summary), 1813 (Primary HTS)]; format: functional
[16] = target: T3, Microphthalmia-associated transcription factor (Homo sapiens, UniProt O75030); assay: reducers of TRPM1 reporter luminescence, concentration series – cell-based, SK-MEL-5, cherry-picked, set 3, MITF inhibitor project, dose response (AID 493073); format: functional;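 further: SK-MEL-5 melanoma cells with luciferase driven by the MITF target TRPM1 promoter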
T3 sequence (O75030 whole entry): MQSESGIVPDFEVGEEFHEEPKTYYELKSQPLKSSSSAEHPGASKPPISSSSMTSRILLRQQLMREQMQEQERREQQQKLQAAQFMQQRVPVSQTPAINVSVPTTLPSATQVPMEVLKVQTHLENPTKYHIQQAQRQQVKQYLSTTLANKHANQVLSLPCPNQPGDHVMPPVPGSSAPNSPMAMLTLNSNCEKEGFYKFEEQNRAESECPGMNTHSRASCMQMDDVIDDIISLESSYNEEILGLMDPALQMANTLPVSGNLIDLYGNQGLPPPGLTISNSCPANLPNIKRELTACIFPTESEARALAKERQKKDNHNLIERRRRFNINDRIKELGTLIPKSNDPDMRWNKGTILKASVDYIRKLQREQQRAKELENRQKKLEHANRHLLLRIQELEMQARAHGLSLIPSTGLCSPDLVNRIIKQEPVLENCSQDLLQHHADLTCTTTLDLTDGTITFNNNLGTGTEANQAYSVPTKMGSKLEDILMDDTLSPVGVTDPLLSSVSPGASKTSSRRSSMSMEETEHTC

[17] = luciferase reporter signal suppression in cells – H4 neuroglioma cells, luminescence, dose response (AID 1990); format: functional, cell-based
[18] = alpha-synuclein stem-loop luciferase translation blockers – H4 neuroglioma cells, luminescence, confirmation (AID 1988); format: functional, cell-based

CN1C(=O)c2cc(NC(=O)c3cscn3)ccc2OC[C@@H]2O[C@@H](CC(=O)NCc3ccc(Cl)c(Cl)c3)CC[C@H]21
AC50 [1]: 3.19 µM (active) | AC50 [2]: 48.6 µM (active)

CS(=O)(=O)N1[C@H](C#N)[C@H](c2ccccc2-c2ccc(F)cc2)[C@H]1CO
AC50 [3]: 16.6 µM (active)

NC(=NOC(=O)Nc1ccccc1)c1ncc([N+](=O)[O-])s1
EC50 [4]: > 120 µM (not active) | EC50 [5]: > 120 µM (not active) | EC50 (H4): > 120 µM (not active)

CCCC(=O)Nc1ccc2c(c1)OC[C@@H](C)N(Cc1cc(-c3ccccc3)on1)C[C@@H](C)[C@H](OC)CN(C)C2=O
AC50 [3]: 5.19 µM (active)

O=C(NCC1CCCO1)c1cc2c(s1)CCC2 (stereo not drawn)
EC50 [4]: 18.7 µM (active) | EC50 [5]: 20.3 µM (active) | EC50 (H4): 50.9 µM (active)

CCN(CC)C(=O)[C@H]1CC(CC(=O)NC/C=C(\C)CCC=C(C)C)C(=O)N2CCc3c([nH]c4ccc(OC)cc34)[C@]12C (stereo partly drawn)
IC50 [6]: 1.33 µM (active) | EC50 [7]: > 53 µM (inactive) | IC50 [8]: 3.54 µM (active)

COc1ccc(-c2ccc3c(c2)[C@@H]2[C@@H](CCN2C(=O)NC2CCCC2)[C@H](CO)N3C)cc1
AC50 [1]: 2.83 µM (active) | AC50 [2]: 26.5 µM (active)

C[C@@H]1CN([C@@H](C)CO)C(=O)c2cc(NC(=O)Nc3ccc4c(c3)OCO4)ccc2O[C@H]1CN(C)C(=O)Nc1cccc2ccccc12
AC50 [3]: 4.89 µM (active)

Cc1ccc(S(=O)(=O)Cc2ccc(C(=O)N3CCN(c4ccc(F)cc4)CC3)o2)cc1
EC50 [9]: 10.1 µM (active) | EC50 [10]: 9.74 µM (active)

C#CCn1c(=O)c2c(ncn2C)n(C)c1=O
AC50 [1]: 43.1 µM (active)

CCCNc1ccc(C(=O)OCC)cc1[N+](=O)[O-]
IC50 [6]: > 20 µM (inactive) | EC50 [7]: > 53 µM (inactive) | IC50 [8]: 17.6 µM (active)

N#C/C(=N\Nc1ccccc1)C(=N)N1CCCCCC1
EC50 [5]: 0.132 µM (active) | EC50 (H4): > 120 µM (not active)

CC(CNC(=O)c1ccc(OC2CCN(Cc3ccccn3)CC2)cc1)c1ccccc1 (stereo not drawn)
EC50 [4]: 53.8 µM (active) | EC50 [5]: 18.2 µM (active) | EC50 (H4): 35.6 µM (active)

O=C1NC(=S)N(C2CC2)C(=O)/C1=C/Nc1ccc2c(c1)OCO2
EC50 [4]: 13.3 µM (active) | EC50 [5]: 95.4 µM (active) | EC50 (H4): 18.7 µM (active)

CC(=O)c1ccc(-n2c(CCC(=O)O)ccc2-c2cccs2)cc1
IC50 [11]: 9.23 µM (not active) | AC50 (Cytochrome P450 2C19): 11.2 µM (inconclusive)

COCC(=O)N1CC2(C1)CN(Cc1cccc(Cl)c1)[C@@H](CO)c1[nH]c3cc(OC)ccc3c12
AC50 [3]: 12.9 µM (active)

COc1cc2nc3c(O)n4c(nc-3c2cc1OC)SCCC4
EC50 [4]: 3.61 µM (active) | IC50 [6]: > 20 µM (inactive) | EC50 [5]: > 120 µM (not active) | EC50 [7]: > 53 µM (inactive) | EC50 (H4): 24.5 µM (active) | IC50 [8]: 3.83 µM (active)

CCN(CC)c1ccc(CN2CC=C(c3ccc(F)cc3)CC2)cc1
AC50 [12]: > 20 µM (inactive)

O=C(NCCc1ccc(F)cc1)c1[nH]nc2ccccc12
EC50 [4]: 42 µM (active) | EC50 [5]: 17.8 µM (active) | EC50 (H4): 24.5 µM (active)

C[C@@H]1CC=C[C@H]2[C@H]1C(=O)N(Cc1ccccc1)[C@H]2c1ccc(-c2cc3ccccc3s2)cc1F
EC50 [4]: 61.8 µM (active) | EC50 [5]: 0.251 µM (active) | EC50 (H4): 0.11 µM (active)

COc1ccc(N2C(=O)CSC2c2ccc([N+](=O)[O-])cc2)cc1 (stereo not drawn)
IC50 [6]: 6.91 µM (active) | EC50 [7]: > 53 µM (inactive) | IC50 [8]: 46.8 µM (active) | AC50 [13]: 5.9 µM (active)

C[C@H]1CN([C@@H](C)CO)C(=O)c2c(c3ccccc3n2C)-c2ccccc2CO[C@H]1CN(C)S(=O)(=O)c1ccccc1C#N
AC50 [3]: 5 µM (active)

O=c1c(/C=N/c2cc(O)nc(S)n2)coc2c1ccc1ccccc12
EC50 (Streptococcus): 20.3 µM (active) | EC50 [14]: 0.752 µM (active) | IC50 [11]: 4.68 µM (active)

C=CC[n+]1c(-c2ccc(C)cc2)csc1Nc1ccc(NC(C)=O)cc1
EC50 [15]: 0.238 µM (active) | AC50 [16]: 1.57 µM (active) | EC50 [17]: 2.34 µM (active) | EC50 [18]: 0.246 µM (active)
